PubChem BioAssay AID330 (DTP/NCI, 2004)
Values joined by “and” are separate entries in the source; they are usually repeats but may differ in a detail not shown here. Equal entries are not always repeated. Toxic doses and inconclusive results are not listed.

Tested on: P388 leukemia ip, CD2F1 mice, survival T/C
Assay: NCI In Vivo Anticancer Drug Screen. Data for tumor model P388 Leukemia (intraperitoneal) in CD2F1 (CDF1) mice
Conditions: endpoint: median survival time, higher = longer survival
How it was run: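 Mice carrying the transplanted tumor received test compound or vehicle. Survival was recorded in each group, and the value is the treated-group measurement divided by that of the vehicle-treated control group.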

[1] = dose: 50.0 mg/kg/injection, schedule: Q01DX005 (ip), vehicle: Klucel (hydroxypropylcellulose) (HPC)
[2] = dose: 100.0 mg/kg/injection, schedule: Q01DX005 (ip), vehicle: Klucel (hydroxypropylcellulose) (HPC)
[3] = dose: 200.0 mg/kg/injection, schedule: Q01DX005 (ip), vehicle: Klucel (hydroxypropylcellulose) (HPC)
[4] = dose: 100.0 mg/kg/injection, schedule: Q01DX009 (ip), vehicle: saline with Tween-80
[5] = dose: 200.0 mg/kg/injection, schedule: Q01DX009 (ip), vehicle: saline with Tween-80
[6] = dose: 50.0 mg/kg/injection, schedule: Q01DX009 (ip), vehicle: saline with Tween-80
[7] = dose: 60.0 mg/kg/injection, schedule: Q01DX005 (ip), vehicle: Klucel (hydroxypropylcellulose) (HPC)
[8] = dose: 120.0 mg/kg/injection, schedule: Q01DX005 (ip), vehicle: Klucel (hydroxypropylcellulose) (HPC)
[9] = dose: 240.0 mg/kg/injection, schedule: Q01DX005 (ip), vehicle: Klucel (hydroxypropylcellulose) (HPC)

O=c1c2ccccc2n(-c2ccccc2)c2cc(Cl)ccc12
T/C [1]: 100 % of control
T/C [2]: 102 % of control
T/C [3]: 100 % of control

O=S1(=O)C=C(Cl)C2C3CC(C(Cl)C3Cl)C21 (stereo not given)
T/C (dose: 15.0 mg/kg/injection, schedule: Q04DX003 (ip), vehicle: saline): 100 % of control
T/C (dose: 30.0 mg/kg/injection, schedule: Q04DX003 (ip), vehicle: saline): 91 % of control

CC(=O)c1c(O)c2c(=O)n(C)c(C)cc2n(C)c1=O
T/C [1]: 100 % of control
T/C [2]: 100 % of control
T/C [3]: 98 % of control

CNC(=O)c1nn(C)c(=O)[nH]c1=O
T/C (dose: 50.0 mg/kg/injection, schedule: Q01DX005 (ip), vehicle: saline): 97 % of control
T/C (dose: 100.0 mg/kg/injection, schedule: Q01DX005 (ip), vehicle: saline): 103 % of control
T/C (dose: 200.0 mg/kg/injection, schedule: Q01DX005 (ip), vehicle: saline): 96 % of control

O=C(OCC#CCOC(=O)C(Cl)Cl)C(Cl)Cl
T/C (dose: 100.0 mg/kg/injection, schedule: Q04DX003 (ip), vehicle: saline with Tween-80): 108 % of control
T/C (dose: 200.0 mg/kg/injection, schedule: Q04DX003 (ip), vehicle: saline with Tween-80): 104 % of control
T/C (dose: 400.0 mg/kg/injection, schedule: Q04DX003 (ip), vehicle: saline with Tween-80): 100 % of control

CC(=O)Nc1ccc(C(=O)O)cc1[N+](=O)[O-]
T/C [4]: 99 % of control
T/C [5]: 99 % of control
T/C (dose: 400.0 mg/kg/injection, schedule: Q01DX009 (ip), vehicle: saline with Tween-80): 97 % of control

COC(=O)C1(C)CCCC2(C)c3cc(OC)ccc3C(=O)C(Br)C12 (stereo not given)
T/C [6]: 103 % of control
T/C [4]: 100 % of control
T/C [5]: 112 % of control

COc1ccc(S(=O)(=O)N/N=C/C(=O)O)cc1
T/C (dose: 6.25 mg/kg/injection, schedule: Q01DX009 (ip), vehicle: other): 116 % of control
T/C (dose: 12.5 mg/kg/injection, schedule: Q01DX005 (ip), vehicle: saline with Tween-80): 118 % of control
T/C (dose: 25.0 mg/kg/injection, schedule: Q01DX009 (ip), vehicle: other): 162 % of control
T/C (dose: 50.0 mg/kg/injection, schedule: Q01DX005 (ip), vehicle: distilled water + Tween-80): 154 % of control
T/C (dose: 50.0 mg/kg/injection, schedule: Q01DX009 (ip), vehicle: other): 158 % of control and 159 % of control
T/C (dose: 100.0 mg/kg/injection, schedule: Q01DX005 (ip), vehicle: distilled water + Tween-80): 182 % of control

CCCCCCCCCCS(=O)(=O)OCCCCOS(=O)(=O)CCCCCCCCCC
T/C [1]: 103 % of control
T/C [2]: 103 % of control
T/C [3]: 93 % of control

O=[N+]([O-])c1cc(S(=O)(=O)O)c2cccnc2c1O
T/C (dose: 100.0 mg/kg/injection, schedule: Q04DX003 (ip), vehicle: saline): 86 % of control
T/C (dose: 200.0 mg/kg/injection, schedule: Q04DX003 (ip), vehicle: saline): 89 % of control
T/C (dose: 400.0 mg/kg/injection, schedule: Q04DX003 (ip), vehicle: saline): 88 % of control

Cc1cc(C)n2nc(CC#N)c(C#N)c2n1
T/C (dose: 12.5 mg/kg/injection, schedule: Q01DX009 (ip), vehicle: Klucel (hydroxypropylcellulose) (HPC)): 109 % of control
T/C (dose: 25.0 mg/kg/injection, schedule: Q01DX009 (ip), vehicle: Klucel (hydroxypropylcellulose) (HPC)): 100 % of control and 107 % of control and 97 % of control
T/C (dose: 50.0 mg/kg/injection, schedule: Q01DX009 (ip), vehicle: Klucel (hydroxypropylcellulose) (HPC)): 100 % of control and 105 % of control and 109 % of control
T/C (dose: 100.0 mg/kg/injection, schedule: Q01DX009 (ip), vehicle: Klucel (hydroxypropylcellulose) (HPC)): 123 % of control and 94 % of control and 97 % of control

O=C(NNC1CCN(Cc2ccccc2)CC1)c1ccccc1
T/C (dose: 10.0 mg/kg/injection, schedule: Q04DX003 (ip), vehicle: saline with Tween-80): 100 % of control
T/C (dose: 20.0 mg/kg/injection, schedule: Q04DX003 (ip), vehicle: saline with Tween-80): 95 % of control

COc1ccc2oc3cccc(NCCN(C)C)c3c(=O)c2c1
T/C (dose: 25.0 mg/kg/injection, schedule: Q01DX005 (ip), vehicle: Klucel (hydroxypropylcellulose) (HPC)): 105 % of control
T/C [1]: 100 % of control
T/C [2]: 107 % of control
T/C [3]: 107 % of control

C=CCOc1ccncc1
T/C (dose: 12.5 mg/kg/injection, schedule: Q01DX009 (ip), vehicle: saline with Tween-80): 100 % of control
T/C (dose: 25.0 mg/kg/injection, schedule: Q01DX009 (ip), vehicle: saline with Tween-80): 95 % of control
T/C [6]: 90 % of control

COc1ccc(C2OC3=Nc4ccccc4NC3C2=O)cc1OC (stereo not given)
T/C [7]: 107 % of control
T/C [8]: 105 % of control
T/C [9]: 100 % of control

C=C1C(=O)O[C@@H]2C[C@@H](C)[C@@H]3C=CC(=O)[C@@]3(C)[C@@H](OC(=O)CCCC(=O)O[C@H]3[C@@H]4C(=C)C(=O)O[C@@H]4C[C@@H](C)[C@@H]4C=CC(=O)[C@]43C)[C@H]12
T/C (dose: 0.39 mg/kg/injection, schedule: Q01DX005 (ip), vehicle: Klucel (hydroxypropylcellulose) (HPC)): 101 % of control
T/C (dose: 0.78 mg/kg/injection, schedule: Q01DX005 (ip), vehicle: Klucel (hydroxypropylcellulose) (HPC)): 100 % of control
T/C (dose: 1.56 mg/kg/injection, schedule: Q01DX005 (ip), vehicle: Klucel (hydroxypropylcellulose) (HPC)): 103 % of control and 118 % of control
T/C (dose: 3.12 mg/kg/injection, schedule: Q01DX005 (ip), vehicle: Klucel (hydroxypropylcellulose) (HPC)): 116 % of control
T/C (dose: 6.25 mg/kg/injection, schedule: Q01DX005 (ip), vehicle: Klucel (hydroxypropylcellulose) (HPC)): 109 % of control

NS(=O)(=O)Oc1ccc(Cl)cc1C(=O)Oc1ccc(Cl)cc1
T/C [7]: 91 % of control
T/C [8]: 91 % of control
T/C [9]: 88 % of control

C=C(C)[C@H]1O[C@H]2CC[C@@]3(C)[C@@](O)(CC[C@H]4[C@@H]5OC(C)(C)[C@H]6C[C@@H]7C(=C)Cc8c(Cl)cc9[nH]c(c5c9c8C76O)[C@@]43C)[C@@]23O[C@H]3[C@H]1O (stereo not given in full)
T/C (dose: 0.5 mg/kg/injection, schedule: Q01DX005 (ip), vehicle: Klucel (hydroxypropylcellulose) (HPC)): 101 % of control
T/C (dose: 1.0 mg/kg/injection, schedule: Q01DX005 (ip), vehicle: Klucel (hydroxypropylcellulose) (HPC)): 97 % of control
T/C (dose: 2.0 mg/kg/injection, schedule: Q01DX005 (ip), vehicle: Klucel (hydroxypropylcellulose) (HPC)): 87 % of control
T/C (dose: 3.75 mg/kg/injection, schedule: Q01DX005 (ip), vehicle: Klucel (hydroxypropylcellulose) (HPC)): 107 % of control
T/C (dose: 4.0 mg/kg/injection, schedule: Q01DX005 (ip), vehicle: Klucel (hydroxypropylcellulose) (HPC)): 93 % of control
T/C (dose: 7.5 mg/kg/injection, schedule: Q01DX005 (ip), vehicle: Klucel (hydroxypropylcellulose) (HPC)): 115 % of control
T/C (dose: 15.0 mg/kg/injection, schedule: Q01DX005 (ip), vehicle: Klucel (hydroxypropylcellulose) (HPC)): 106 % of control
T/C (dose: 30.0 mg/kg/injection, schedule: Q01DX005 (ip), vehicle: Klucel (hydroxypropylcellulose) (HPC)): 107 % of control
T/C [7]: 107 % of control

COc1ccccc1Nc1nc(-c2ccc([N+](=O)[O-])o2)cs1
T/C (dose: 50.0 mg/kg/injection, schedule: Q01DX005 (ip), vehicle: saline with Tween-80): 93 % of control
T/C (dose: 100.0 mg/kg/injection, schedule: Q01DX005 (ip), vehicle: saline with Tween-80): 86 % of control
T/C (dose: 200.0 mg/kg/injection, schedule: Q01DX005 (ip), vehicle: saline with Tween-80): 88 % of control

Cc1cc(C)c2c(c1N)C(=O)CCO2
T/C (dose: 7.5 mg/kg/injection, schedule: Q01DX005 (ip), vehicle: saline with Tween-80): 96 % of control
T/C (dose: 15.0 mg/kg/injection, schedule: Q01DX005 (ip), vehicle: saline with Tween-80): 100 % of control
T/C (dose: 30.0 mg/kg/injection, schedule: Q01DX005 (ip), vehicle: saline with Tween-80): 102 % of control

O=S(=O)(O)Sc1ncnc2nc[nH]c12
T/C (dose: 50.0 mg/kg/injection, schedule: Q01DX009 (ip), vehicle: saline): 108 % of control
T/C (dose: 75.0 mg/kg/injection, schedule: Q04DX003 (ip), vehicle: saline): 100 % of control
T/C (dose: 100.0 mg/kg/injection, schedule: Q01DX009 (ip), vehicle: saline): 122 % of control
T/C (dose: 150.0 mg/kg/injection, schedule: Q04DX003 (ip), vehicle: saline): 98 % of control
T/C (dose: 200.0 mg/kg/injection, schedule: Q01DX009 (ip), vehicle: saline): 108 % of control
T/C (dose: 300.0 mg/kg/injection, schedule: Q04DX003 (ip), vehicle: saline): 108 % of control

CN(C)c1ccc2nc3ccc(N)cc3[n+](-c3ccccc3)c2c1
T/C (dose: 3.12 mg/kg/injection, schedule: Q01DX005 (ip), vehicle: saline): 106 % of control
T/C (dose: 6.25 mg/kg/injection, schedule: Q01DX005 (ip), vehicle: saline): 106 % of control
T/C (dose: 12.5 mg/kg/injection, schedule: Q01DX005 (ip), vehicle: saline): 112 % of control
